Reference: patent US20050119314A1, “Pharmaceutical composition comprising an ACAT inhibitor and an insulin resistance reducing agent” (SANKYO COMPANY, LIMITED, priority 2002, published 2005)

System: apolipoprotein E-deficient mice
Experiment: Determination of areas of pathological changes appearing in the aorta (atherosclerotic lesions and macrophage area in the aortic valve)
Assay type: in vivo
Settings: male apolipoprotein E-deficient mice, compounds mixed with diet (Compound A 0.03 w/w %, Compound B 0.0001 w/w %) for 12 weeks, average ± standard error; for Rate of area occupied with macrophage: anti-MOMA-2 positive area relative to lesion area
Source text: Determination of Areas of Pathological Changes Appearing in the Aorta
Male apolipoprotein E-deficient mice of 12 weeks of age were divided into 4 groups (10 mice per a group) as follows: control group, group treated with 5-[4-(6-methoxy-1-methylbenzimidazol-2-yl-methoxy)benzyl]thiazolidine-2,4-dione hydrochloride (mixed with diet at a concentration of 0.0001 w/w %, hereinafter referred to as Compound B), group treated with N-(1-octyl-5-carboxymethyl-4,6-dimethylindolin-7-yl)-2,2-dimethylpropanamide hemisulfate (mixed with diet at a concentration of 0.03 w/w %, hereinafter referred to as Compound A), and co-administration group of Compound B (mixed with diet at a concentration of 0.0001 w/w %) and Compound A (mixed with diet at a concentration of 0.03 w/w %). All mice were treated with compounds mixed with diet except the control group for 12 successive weeks. The mice were autopsied in the 12th week and the area of atherosclerotic lesions in the aortic valve and the ratio of the area occupied by macrophages in the same area (positively stained area with anti-MOMA-2) were determined.
(1) Areas of Atherosclerotic Lesions in the Aorta
The aortic valve was stained with elastic-Masson and the area of atherosclerotic lesions in the aortic valve determined. Less-stained areas indicate greater inhibitory effects of the agents on the atherosclerotic lesions as well as suppressive action of the agents against progressive development of atherosclerotic lesions in the aorta.
(2) Rate of Area Occupied by Macrophages
Macrophages in the aortic valve were detected by staining with anti-MOMA-2. Areas occupied by macrophages in the aortic valve were determined and the ratio of the area occupied by macrophages (positively stained areas with anti-MOMA-2) to the area of atherosclerotic lesions in the aortic valve was calculated.
Macrophages are a factor to make plaques unstable. Thus decreases in macrophage accumulation increase plaque stability and are related to amelioration of the atherosclerotic lesions.
The actual measurement value in Table 1 indicates average ± standard error.

| Molecule | Rate of area occupied with macrophage [%] | Area of atherosclerotic lesions (elastic-Masson stain) [μm^2] |
| --- | --- | --- |
| COc1ccc2nc(COc3ccc(CC4SC(=O)NC4=O)cc3)n(C)c2c1.Cl (stereo not drawn) [Compound B, 5-[4-(6-methoxy-1-methylbenzimidazol-2-yl-methoxy)benzyl]thiazolidine-2,4-dione hydrochloride] | 23.3 ± 4.1 | 80616 ± 11611 |
| N-(1-octyl-5-carboxymethyl-4,6-dimethylindolin-7-yl)-2,2-dimethylpropanamide hemisulfate [Compound A] | 13.7 ± 2.2 |  |
